The source of these data is EP4752152A1, “STEROID COMPOUND, AND PREPARATION METHOD THEREFOR AND USE THEREOF” (Cholesgen (Shanghai) Co.Ltd., priority 2023, dated 2025).

Molecules are shown by their SMILES.

As a reminder, the IC50 is the point on the concentration scale where inhibition reaches its midpoint.

The assay has as its system SREBP pathway. Put plainly: SREBP luciferase reporter gene system (SRE-luciferase assay). The assay is classed as cell-based, human. As to conditions: Huh-7/SRE-luc cells, sterol-deficient medium, 0.01-10 µM. The method in brief:
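Readout was SRE-driven luciferase normalised to GFP fluorescence in lysates of stably transfected Huh-7/SRE-luc hepatoma cells. Compounds (0.01, 0.03, 0.1, 0.3, 1.0, 3.0, 10 µM; DMSO control) were applied for 16 h in sterol-depleted medium with 2 µM lovastatin and 10 µM mevalonate; IC50 from variable-slope fit.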
On the technique in general: A reporter such as luciferase makes a cellular process visible.

`COc1cc(F)cc(OC)c1C(O)CCC[C@@H](C)[C@H]1CC[C@H]2[C@H]3[C@H](CC[C@]12C)[C@@]1(C)CC[C@H](O)[C@H](O)[C@@H]1CC3(F)F` (single isomer, unassigned) [Compound 225, (1R,3aS,3bS,5aR,6R,7S,9aR,9bS,11aR)-4,4-difluoro-1-[(2R,6R)-6-(4-fluoro-2,6-dimethoxyphenyl)-6-hydroxyhexan-2-yl]-9a,11a-dimethylhexadecahydro-1H-cyclopenta[1,2-a]phenanthrene-6,7-diol or (1R,3aS,3bS,5aR,6R,7S,9aR,9bS,11aR)-4,4-difluoro-1-[(2R,6S)-6-(4-fluoro-2,6-dimethoxyphenyl)-6-hydroxyhexan-2-yl]-9a,11a-dimethylhexadecahydro-1H-cyclopenta[1,2-a]phenanthrene-6,7-diol]: the IC50 (16 hours) is 0.175 µM.

For the molecule `C[C@H](CCCC(O)c1cccc2nn[nH]c12)[C@H]1CC[C@H]2[C@H]3[C@H](CC[C@]12C)[C@@]1(C)CC[C@H](O)[C@H](O)[C@@H]1CC3(F)F` (stereo partly drawn) [Compound 282, (1R,3aS,3bS,5aR,6R,7 S,9aR,9bS,11aR)-4,4-Difluoro-1-[(2R)-6-hydroxy-6-(3H-benzo[d][1,2,3]triazol-4-yl)hexan-2-yl]-9a,11a-dimethylhexadecahydro-1H-cyclopenta[1,2-a]phenanthrene-6,7-diol], the IC50 (Homo sapiens, Huh-7, 16 h) was 0.389 µM.

As to `C[C@H](CCC[C@H](O)c1ncc(F)cc1F)[C@H]1CC[C@H]2[C@H]3[C@H](CC[C@]12C)[C@@]1(C)CC[C@H](O)[C@H](O)[C@@H]1CC3(F)F` (single isomer, unassigned) [Compound 279], the IC50 (Homo sapiens, Huh-7, 16 h) was determined as 0.202 µM.

In the case of `COc1cc(F)ccc1C(N)CCC[C@@H](C)[C@H]1CC[C@H]2[C@H]3[C@H](CC[C@]12C)[C@@]1(C)CC[C@H](O)[C@H](O)[C@@H]1CC3(F)F` (stereo partly drawn) [Compound 156, (1R,3aS,3bS,5aR,6R,7S,9aR,9bS,11aR)-1-[(2R)-6-amino-6-(4-fluoro-2-methoxyphenyl)hexan-2-yl]-4,4-difluoro-9a,11a-dimethylhexadecahydro-1H-cyclopenta[1,2-a]phenanthrene-6,7-diol], the IC50 (Homo sapiens, Huh-7, 16 h) was found to be 1.32 µM.

For the molecule `C[C@H](CCCC(O)C1CC2CCC1C2)[C@H]1CC[C@H]2[C@H]3[C@H](CC[C@]12C)[C@@]1(C)CC[C@H](O)[C@H](O)[C@@H]1CC3(F)F` (stereo partly drawn) [Compound 213, (1R,3aS,3bS,5aR,6R,7 S,9aR,9bS,11aR)-1-[(2R)-6-(Bicyclo[2.2.1]heptan-2-yl)-6-hydroxyhexan-2-yl]-4,4-difluoro-9a,11a-dimethylhexadecahyd ro-1H-cyclopenta[1,2-a]phenanthrene-6,7-diol], under “Homo sapiens, Huh-7, 16 h”, the IC50 is 0.569 µM.

In the case of `COc1nc(F)cc(F)c1[C@H](O)CCC[C@@H](C)[C@H]1CC[C@H]2[C@H]3[C@H](CC[C@]12C)[C@@]1(C)CC[C@H](O)[C@H](O)[C@@H]1CC3(F)F` (single isomer, unassigned) [Compound 256], the IC50 (Homo sapiens, Huh-7, 16 h) came to 0.099 µM.

As for `COc1cc(F)ccc1[C@H](O)CCC[C@@H](C)[C@H]1CC[C@H]2C3=C(F)C[C@H]4[C@@H](O)[C@@H](O)CC[C@]4(C)[C@H]3CC[C@]12C` [Compound 132, (1R,3aR,5aR,6R,7S,9aR,9bR,11aR)-4-fluoro-1-[(2R,6R)-6-(4-fluoro-2-methoxyphenyl)-6-hydroxyhexan-2-yl]-9a,11a-dimethyl-2,3,3a,5,5a,6,7,8,9,9a,9b,10,11,11a-tetradecahydro-1H-cyclopenta[1,2-a]phenanthrene-6,7-diol], the IC50 (Homo sapiens, Huh-7, 16 h) was 0.096 µM.

Take `C[C@H](CCCC(O)c1cncc2c1cnn2C)[C@H]1CC[C@H]2[C@H]3[C@H](CC[C@]12C)[C@@]1(C)CC[C@H](O)[C@H](O)[C@@H]1CC3(F)F` (single isomer, unassigned) [Compound 288, (1R,3aS,3bS,5aR,6R,7S,9aR,9bS,11aR)-4,4-difluoro-1-[(2R,6R)-6-hydroxy-6-(1-methylpyrazolo[3,4-c]pyridin-4-yl)hexan-2-yl]-9a,11a-dimethylhexadecahydro-1H-cyclopenta[1,2-a]phenanthrene-6,7-diol or (1R,3aS,3bS,5aR,6R,7S,9aR,9bS,11aR)-4,4-difluoro-1-[(2R,6S)-6-hydroxy-6-(1-methylpyrazolo[3,4-c]pyridin-4-yl)hexan-2-yl]-9a,11a-dimethylhexadecahydro-1H-cyclopenta[1,2-a]phenanthrene-6,7-diol]: under “16 hours”, the IC50 was found to be 0.388 µM.

For the molecule `COc1nc(F)ccc1[C@@H](O)CC[C@@H](C)[C@H]1CC[C@H]2C3=C(F)C[C@H]4[C@@H](O)[C@@H](O)CC[C@]4(C)[C@H]3CC[C@]12C` [Compound 339, (1R,3aR,5aR,6R,7S,9aR,9bR,11aR)-4-fluoro-1-[(2R,5S)-5-(6-fluoro-2-methoxypyridin-3-yl)-5-hydroxypentan-2-yl]-9a,11a-dimethyl-2,3,3a,5,5a,6,7,8,9,9a,9b,10,11,11a-tetradecahydro-1H-cyclopenta[1,2-a]phenanthrene-6,7-diol], the IC50 (Homo sapiens, Huh-7, 16 h) came out at 0.143 µM.

In the case of `C[C@H](CCCC(O)c1ccc(F)nc1F)[C@H]1CC[C@H]2[C@H]3[C@H](CC[C@]12C)[C@@]1(C)CC[C@H](O)[C@H](O)[C@@H]1CC3(F)F` (single isomer, unassigned) [Compound 226, (1R,3aS,3bS,5aR,6R,7S,9aR,9bS,11aR)-1-[(2R,6S)-6-(2,6-difluoropyridin-3-yl)-6-hydroxyhexan-2-yl]-4,4-difluoro-9a,11a-dimethylhexadecahydro-1H-cyclopenta[1,2-a]phenanthrene-6,7-diol or (1R,3aS,3bS,5aR,6R,7S,9aR,9bS,11aR)-1-[(2R,6R)-6-(2,6-difluoropyridin-3-yl)-6-hydroxyhexan-2-yl]-4,4-difluoro-9a,11a-dimethylhexadecahydro-1H-cyclopenta[1,2-a]phenanthrene-6,7-diol], the half-inhibitory concentration (IC50) (16 hours) came to 0.1 µM.

For `COc1nc(F)ccc1C(O)CC[C@@H](C)[C@H]1CC[C@H]2[C@H]3[C@H](CC[C@]12C)[C@@]1(C)CC[C@H](O)[C@H](O)[C@@H]1CC3(F)F` (stereo partly drawn) [Compound 341, (1R,3aS,3bS,5aR,6R,7S,9aR,9bS,11aR)-4,4-difluoro-1-[(2R)-5-(6-fluoro-2-methoxypyridin-3-yl)-5-hydroxypentan-2-yl]-9a,11a-dimethylhexadecahydro-1H-cyclopenta[1,2-a]phenanthrene-6,7-diol], the IC50 (Homo sapiens, Huh-7, 16 h) turned out to be 0.206 µM.

For `C[C@H](CCC[C@H](O)c1nnnn1C)[C@H]1CC[C@H]2[C@H]3[C@H](CC[C@]12C)[C@@]1(C)CC[C@H](O)C[C@@H]1CC3(F)F` (single isomer, unassigned) [Compound 380], for the setting “Homo sapiens, Huh-7, 16 h”, the IC50 came out at 0.152 µM.

For the molecule `C[C@H](CCN(C)C(=O)c1ccccc1F)[C@H]1CC[C@H]2[C@@H]3CC[C@@]4(C)[C@@H](O)[C@@H](O)CC[C@]4(C)[C@H]3CC[C@]12C` [Compound 15A, 2-fluoro-N-[(3R)-3-[(1R,3aS,3bS,5aR,6R,7S,9aR,9bS,11aR)-6,7-dihydroxy-5a,9a,11a-trimethylhexadecahydro-1H-cyclopenta[1,2-a]phenanthren-1-yl]butyl]-N-methylbenzamide], the IC50 (Homo sapiens, Huh-7, 16 h) was found to be 0.37 µM.

For `C[C@H](CCCC(O)c1ccc(F)nc1F)[C@H]1CC[C@H]2[C@H]3[C@H](CC[C@]12C)[C@@]1(C)CC[C@H](O)[C@H](O)[C@@H]1CC3(F)F` (stereo partly drawn) [Compound 148, (1R,3aS,3bS,5aR,6R,7S,9aR,9bS,11aR)-1-[(2R)-6-(2,6-difluoropyridin-3-yl)-6-hydroxyhexan-2-yl]-4,4-difluoro-9a,11a-dimethylhexadecahydro-1H-cyclopenta[1,2-a]phenanthrene-6,7-diol], the IC50 (Homo sapiens, Huh-7, 16 h) was found to be 0.08 µM.
